Source: patent publication US20260234144A1 (TAY THERAPEUTICS LIMITED, priority 2023, published 2026)

System: R223X stop codon in the mutated luciferase gene, ADXC8 luciferase reporter cell line
Assay: cells
Type: cell-based
Settings: ADXC8 cells, 24 hours; for Emax / EC (100% of 200 uM G418 response): 24 h; for Emax: read-out: Fold Over Control, maximum fold response relative to 200 μM G418; for EC (100% of 200 uM G418 response): read-out: pC100%, negative logarithm of the concentration giving the same response as 200 μM G418
Experimental: The read-through activity of compounds was assessed using the ADXC8 luciferase reporter cell line (generated as described in McElroy et al. PLoS Biology (2013), 11, e1001593). […] The amount of luciferase is measured by adding a lysis buffer containing luciferin substrate and detecting luminescence using the following protocol:
ADXC8 cells in assay media (DMEM+10% FBS) were seeded into 96-well tissue culture treated white plates (Greiner) to a density of 13,000 cells per well and incubated for 24 hours at 37° C. in an atmosphere of 5% CO2. […] Plates were incubated for a further 24 hours at 37° C. in an atmosphere of 5% CO2. Cells treated with 200 μM G418 (with 1% DMSO) were used as a positive control.
Cell viability and firefly luciferase activity were measured in the same assay wells. CellTiter-Fluor™ reagent was prepared as per manufacturer's instructions (Promega E7120) and 20 μl of 5× CellTiter-Fluor™ reagent was added to all wells, briefly mixed by orbital shaking (300-500 rpm for −30 seconds) and the plates incubated for 30-45 minutes at 37° C. in an atmosphere of 5% C02. Cell viability was measured by monitoring fluorescence on a CLARIOstar® plate reader (BMG Labtech). Cells containing 1% DMSO were used as a positive control and cells with 400 μM Doxorubicin were used as negative control to define 100 and 0% respectively. ONE-Glo™ luciferase assay buffer (Promega E7120) was prepared according to manufacturer's instructions and 100 μl of luciferase reagent was added to each well and the plate incubated at RT for 3 mins before measuring the luminescence on the CLARIOstar® plate reader (BMG Labtech). Cells treated with 200 μM G418 (with 1% DMSO) were used as a positive control and arbitrarily assigned a value of 100%. Cells treated with 1% DMSO were used as the negative control to define 0% response.
Concentration effect curves were analysed using non-linear regression using the CDD Vault from Collaborative Drug Discovery (Burlingame, CA). […] The bottom and top of the curves were constrained to 0 and the maximum measured response respectively. From the fitted curves, the software derived C100% values (the concentration giving the same response as 200 μM G418) for each compound. The negative logarithm of C100% is reported as pC100% (Table 1). In addition to pC100% values, the maximum fold response relative to 200 μM G418 (Fold over Control) was also captured (Table 1). A pC100% categorisation of ‘-’ in Table 1 represents examples in which a pC100% response was not reached when assayed at a concentration of 100 μM. A pC100% categorisation of ‘*’ in Table 1 represents examples in which a pC100% response was not reached when assayed at a concentration of 30 μM.

Row | Compound | Emax [%] | EC (100% of 200 uM G418 response) [µM] | Fold Over Control (maximum fold response relative to 200 μM G418) | pC100% (negative logarithm of the concentration giving the same response as 200 μM G418)
1 | CC(=O)NCCNc1nc(NC2CCN(C)CC2)nc2nc(C)cc(C)c12 [Example 355] | 0 to 100 | > 31.6 |  | 
2 | CNCc1ccc(-c2ccc3c(N)nc(NC4CCN(C)CC4)nc3n2)cc1 [Example 56] | 100 to 3000 | 10 to 100 |  | 
3 | CNc1nc(N[C@H]2CNC[C@@H]2C)nc2nc(C)cc(C)c12 [Example 382] | 100 to 3000 | 1 to 10 |  | 
4 | CC(O)c1cnc2nc(NC3CCN(C)CC3)nc(N)c2c1 (stereo not shown) [Example 126, 1-{4-amino-2-[(1-methylpiperidin-4-yl)amino]pyrido[2,3-d]pyrimidin-6-yl}ethanol] | 0 to 100 | > 100 |  | 
5 | CNc1nc(NC2CC3CC2CN3C)nc2nc(C)cc(C)c12 (single isomer, unassigned) [Example 432] |  |  | ## (Fold over Ctrl > 1 ≤ 30) | ++ (pC100% > 5.0 ≤ 6.0)
6 | CN1CCC(Nc2nc(N)c3ccc(-c4cccc(S(C)(=O)=O)c4)nc3n2)CC1 [Example 97] |  | 10 to 100 |  | 
7 | [2H]C([2H])(c1ccc(C#N)cc1)N1CCC(Nc2nc(N)c3c(C)cc(C)nc3n2)CC1 [Example 507, 4-((4-((4-amino-5,7-dimethylpyrido[2,3-d]pyrimidin-2-yl)amino)piperidin-1-yl)methyl-d2)benzonitrile] | 100 to 3000 | 0.1 to 1 |  | 
8 | CNc1nc(N[C@@H]2CCN(C)C2)nc2nc(C)c3c(c12)CCC3 [Example 337] |  | 0.1 to 1 |  | 
9 | CNc1nc(N[C@H]2CNC[C@@H]2F)nc2nc(C)cc(C)c12 [Example 334] |  | 1 to 10 |  | 
10 | Cc1cc(C)c2c(N)nc(NC3CCCN(C(=O)OC(C)(C)C)CC3)nc2n1 (stereo not shown) [Example 131, tert-butyl 4-((4-amino-5,7-dimethylpyrido[2,3-d]pyrimidin-2-yl)amino)azepane-1-carboxylate] | 0 to 100 | > 100 |  | 
11 | Cc1cc(C)c2c(NCCC(N)=O)nc(NC3CCN(C)CC3)nc2n1 [Example 329] | 0 to 100 | > 31.6 |  | 
12 | COc1cc(C)nc2nc(N[C@@H]3CCN(C)C3)nc(N)c12 [Example 525, (R)-5-methoxy-7-methyl-N^2-(1-methylpyrrolidin-3-yl)pyrido[2,3-d]pyrimidine-2,4-diamine] | 100 to 3000 | 10 to 100 |  | 
13 | Cc1cc(C)c2c(NC(C)C)nc(N[C@@H]3CCNC3)nc2n1 [Example 323] | 100 to 3000 | 1 to 10 |  | 
14 | Cc1cc(C)c2c(N)nc(NC3CCN(Cc4ccccc4S(C)(=O)=O)CC3)nc2n1 [Example 498] | 0 to 100 | > 31.6 |  | 
15 | CNc1nc(N[C@@]2(C)CCNC2)nc2nc(C)cc(C)c12 [Example 637] | 0 to 100 | > 31.6 |  | 
16 | COc1ccnc2nc(NC3CCN(C)CC3)nc(N)c12 [Example 281] | 100 to 3000 | 10 to 100 |  | 
17 | CNc1nc(N[C@H]2CNC[C@@H]2F)nc2nc3c(c(C)c12)CCC3 [Example 342] | 100 to 3000 | 0.1 to 1 |  | 
18 | Cc1cc(C)c2c(N)nc(NC3(C)CNC3)nc2n1 [Example 222] | 0 to 100 | > 31.6 |  | 
19 | Cc1cc(C)c2c(N)nc(N[C@@H]3CCNC[C@@H]3F)nc2n1 [Example 586] |  | 1 to 10 |  | 
20 | COCc1cccc(CN2CCC(Nc3nc(N)c4c(C)cc(C)nc4n3)CC2)c1 [Example 464] | 100 to 3000 | 10 to 100 |  | 
21 | Cc1cc(C)c2c(N)nc(N[C@@H]3CCN(Cc4ccc(C#N)cc4)C[C@H]3O)nc2n1 [Example 558] | 100 to 3000 | 1 to 10 |  | 
22 | Cc1nc2nc(NC3CCN(Cc4ccc(C#N)c(F)c4)CC3)nc(N)c2c2c1CCC2 [Example 528] | 100 to 3000 | 0.1 to 1 |  | 
23 | CNc1nc(N[C@H]2CNC[C@@H]2C(F)(F)F)nc2nc(C)cc(C)c12 [Example 417] |  | 1 to 10 |  | 
24 | Cc1cc(C)c2c(N)nc(NC[C@H]3CN(C(=O)OC(C)(C)C)CCO3)nc2n1 [Example 138] | 0 to 100 | > 100 |  | 
